Values joined by “and” are separate entries in the source; they are usually repeats but may differ in a detail not shown here. Equal values may be shown once. Read-outs that look alike come from different tables or passages of the source.
Experiments:
[1] = test system: HBsAg secretion, HBV producing cell line HepG2.2.15; assay: Cellular assay: HBsAg inhibition in HBV producing cell line HepG2.2.15; type: cell-based; settings: Hepatitis B virus
Experimental: (§1) Cellular assays method 1: Cellular assays: The HBV producing cell line HepG2.2.15 was cultured in DMEM/F12 containing 10% fetal bovine serum (FBS), 100 U/ml penicillin and 100 μg/ml streptomycin (Invitrogen). Compounds of the disclosure in DMSO was added into the culture medium when cell reached 100% confluence. The final concentration of DMSO was adjusted to 0.5%. Culture medium was replaced in two days and the cell was cultured for additional two days in the presence of compound. HBsAg inhibition in culture medium was then detected with AlphaLisa assay using anti-HBsAg antibodies of 10-H05H and 60C-CR2100RB from Fitzgerald Internantional. To examine the change of nucleic acid, total RNA was extracted with Trizol reagents and resolved in glyoxal agarose gel. HBV RNA blotted onto nitrocellulose membrane was measured with P32 labeled ribo-probe. Reduction and shortening of viral RNA indicates on target effect of the tested compound. […] HepG2.2.15 cells were first seeded in 96-well plate (Corning, Cat #: CLS3595) at density of 10,000 cells/well in 100 ul DMEM/F12 medium containing 10% FBS. When cells reached 100% confluence, treatment with compounds of the disclosure was initiated, and cells were cultured in the way as described for HBsAg inhibition study. Four days post drug treatment, 100 ul of CellTiter-Glo reagents (Promega, Cat #G7570) were added into each well and the mixture was incubated at 23° C. for 12 minutes, followed by the reading of luminescent signal in Tecan's Infinite 200 PRO. Compound IC50 on HBsAg and CC50 on cell viability were calculated using Graphpad prism. The IC50 and CC50 are defined as the compound concentration (or conditioned media log dilution) at which HBsAg secretion and cytotoxicity, respectively, are reduced by 50% compared to the no drug control.
(§2) Cellular assays method 2: HepG2.2.15 cells were seeded in duplicate into white, 96-well plates at 1.5×10^4 cells/well. The cells were treated with a 3-fold serial dilution series of the compounds in DMSO. The final DMSO concentration in all wells was 1%, and DMSO was used as no drug control. The HBsAg chemiluminescence immunoassay (CLIA) kit (Autobio Diagnostics Co., Zhengzhou, China) was used to measure the levels of secreted HBV antigens semi-quantitatively. For the detection, 50 μL/well culture supernatant was used and the procedure conducted as directed by manufacturer's instructions. The cytotoxicity was measured using CellTiter-Glo (Promega, Madison, WI, USA, catalogue no. G7571). Dose-response curves were generated and the IC50 and CC50 values were calculated using Graphpad prism. The IC50 and CC50 are defined as the compound concentration (or conditioned media log dilution) at which HBsAg secrection and cytotoxicity, respectively, are reduced by 50% compared to the no drug control.

[2] = target: T1, OATP1B1 (Homo sapiens, UniProt Q9Y6L6); assay: OATP1B1 transporter substrate uptake in OATP1B1-HEK293 cells; type: in vitro ADME; settings: test concentration 1 μM
T1 construct: expressed in transfected cells; host or cells: HEK293
T1 sequence (Q9Y6L6 1-691): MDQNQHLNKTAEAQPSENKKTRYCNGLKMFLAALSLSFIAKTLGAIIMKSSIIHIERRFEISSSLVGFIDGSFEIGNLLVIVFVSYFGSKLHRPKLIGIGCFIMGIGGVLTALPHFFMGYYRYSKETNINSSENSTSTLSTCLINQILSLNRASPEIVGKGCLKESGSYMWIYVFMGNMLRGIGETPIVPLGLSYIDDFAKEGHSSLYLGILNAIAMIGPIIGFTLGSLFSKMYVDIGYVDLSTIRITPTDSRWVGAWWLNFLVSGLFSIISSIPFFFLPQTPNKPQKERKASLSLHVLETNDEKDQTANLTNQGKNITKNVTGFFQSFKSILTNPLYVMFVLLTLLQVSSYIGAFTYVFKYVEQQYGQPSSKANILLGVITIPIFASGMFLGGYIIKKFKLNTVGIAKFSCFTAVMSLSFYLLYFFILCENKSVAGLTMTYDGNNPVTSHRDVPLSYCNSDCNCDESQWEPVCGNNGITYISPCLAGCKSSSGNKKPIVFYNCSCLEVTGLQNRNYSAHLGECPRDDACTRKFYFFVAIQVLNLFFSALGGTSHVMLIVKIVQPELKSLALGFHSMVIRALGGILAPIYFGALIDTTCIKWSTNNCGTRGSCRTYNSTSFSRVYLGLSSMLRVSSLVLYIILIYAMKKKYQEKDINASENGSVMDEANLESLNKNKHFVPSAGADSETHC

[3] = Pharmacokinetics after 8 mg/kg oral (PO) administration, plasma; type: in vivo, CD1 mice; design: AUClast/D: unit not given here
Experimental: Protocol for pharmacokinetic and tissue distribution studies. The pharmacokinetics of the compounds was studied in CD1 mice after intravenous (IV) and oral gavage (PO) administration. Mouse PK studies was conducted at 3 mg/kg (IV) and 8 mg/kg (PO). Plasma samples obtained from dosed animals, at ten time points, including 5, 15 and 30 minutes and 1, 1.5, 2, 4, 6, 8 and 24 hr post-dose for processing to plasma, were prepared for analysis by means of a single step protein precipitation technique, by adding 200 μL of acetonitrile containing an IS mixture (labetalol, imipramine and diclofenac) to 50 μL aliquots of individual subject samples. Samples were mixed by vortex for homogeneity and then subjected to centrifugation at 4000 rpm for 10 min. The supernatant (200 μL) was collected and injected into the LC-MS/MS for analysis. Pharmacokinetic parameters will be calculated using established non-compartmental methods. The liver distribution of the compounds was studied in the PO group and liver tissues were collected at each time point after PO administration. Accurately weighed whole liver tissues were collected in a 50 mL tube, and 3 volumes per weight of water will be added. Tissue samples were homogenized and 50 μL of the homogenates will be processed along with plasma samples as described above.

[4] = Cellular toxicity (CellTiter-Glo) in HepG2.2.15 cells; type: cell-based; settings: human
Experimental: as §1, §2

[5] = CD1, mouse, plasma, 8 mg/kg oral, mean

SMILES: COc1cc2c(cc1OCCCCCCC(=O)O)C[C@@H](C(C)C)n1cc(C(=O)O)c(=O)cc1-2 [Example 6, (S)-9-((6-carboxyhexyl)oxy)-6-isopropyl-10-methoxy-2-oxo-6,7-dihydro-2H-pyrido[2,1-a]isoquinoline-3-carboxylic acid]
- EC50 [1]: 23 nM
- Uptake Ratio (−/+Inhibitor) ([2]; OATP1B1-HEK293 cells, inhibitor Rifamycin SV): 11.17
- Uptake Ratio (Transporter(−Inhibitor)/Mock(−Inhibitor)) ([2]; OATP1B1-HEK293 vs Mock (normal HEK293)): 18.99
- F ([3]; 8 mg/kg oral vs 3 mg/kg IV, mean): 5.09%
- Plasma concentration ([3]; 8 mg/kg oral, 0.25 h, individual animals): 10.3 ng/mL and 19.5 ng/mL and 18.4 ng/mL
- Plasma concentration ([3]; 8 mg/kg oral, 0.5 h, individual animals): 9.93 ng/mL and 9.00 ng/mL and 9.40 ng/mL
- Plasma concentration ([3]; 8 mg/kg oral, 1 h, individual animals): 4.10 ng/mL and 5.94 ng/mL and 9.27 ng/mL
- Plasma concentration ([3]; 8 mg/kg oral, 2 h, individual animals): 5.41 ng/mL and 4.55 ng/mL and 2.29 ng/mL
- Plasma concentration ([3]; 8 mg/kg oral, 4 h, individual animals): 3.03 ng/mL and 4.12 ng/mL and 3.68 ng/mL
- Plasma concentration ([3]; 8 mg/kg oral, 6 h, individual animals): 1.53 ng/mL and 2.42 ng/mL and 2.85 ng/mL
- Plasma concentration ([3]; 8 mg/kg oral, 8 h, individual animals): 6.65 ng/mL and 2.11 ng/mL and BLOQ
- Plasma concentration ([3]; 8 mg/kg oral, 24 h, individual animals): BLOQ
- AUClast/D ([3]; 8 mg/kg oral, mean): 4.33
- concentration at 0.25 h ([3]; CD1, mouse, plasma, oral, 8 mg/kg, 8 mg/kg oral, 0.25 h, individual animals, read-out: Plasma concentration): 18.4 ng/mL
- concentration at 0.25 h ([3]; CD1, mouse, plasma, oral, 8 mg/kg, 8 mg/kg oral, 0.25 h, mean, read-out: Mean plasma concentration): 16.1 ng/mL
- concentration at 0.5 h ([3]; CD1, mouse, plasma, oral, 8 mg/kg, 8 mg/kg oral, 0.5 h, individual animals, read-out: Plasma concentration): 9.4 ng/mL
- concentration at 0.5 h ([3]; CD1, mouse, plasma, oral, 8 mg/kg, 8 mg/kg oral, 0.5 h, mean, read-out: Mean plasma concentration): 9.44 ng/mL
- concentration at 1 h ([3]; CD1, mouse, plasma, oral, 8 mg/kg, 8 mg/kg oral, 1 h, mean): 6.44 ng/mL
- concentration at 2 h ([3]; CD1, mouse, plasma, oral, 8 mg/kg, 8 mg/kg oral, 2 h, mean): 4.08 ng/mL
- concentration at 4 h ([3]; CD1, mouse, plasma, oral, 8 mg/kg, 8 mg/kg oral, 4 h, individual animals, read-out: Plasma concentration): 3.68 ng/mL
- concentration at 4 h ([3]; CD1, mouse, plasma, oral, 8 mg/kg, 8 mg/kg oral, 4 h, mean, read-out: Mean plasma concentration): 3.61 ng/mL
- concentration at 6 h ([3]; CD1, mouse, plasma, oral, 8 mg/kg, 8 mg/kg oral, 6 h, individual animals, read-out: Plasma concentration): 2.85 ng/mL
- concentration at 6 h ([3]; CD1, mouse, plasma, oral, 8 mg/kg, 8 mg/kg oral, 6 h, mean, read-out: Mean plasma concentration): 2.27 ng/mL
- concentration at 8 h ([3]; CD1, mouse, plasma, oral, 8 mg/kg, 8 mg/kg oral, 8 h, mean): 4.38 ng/mL
- AUC(0-t) [3, 5]: 34.7 ng·h/mL
- Cmax [3, 5]: 16.1 ng/mL
- Tmax [3, 5]: 15 min
- CC50 [4]: > 10 µM
